Source: patent publication EP0821692B1, “IMMUNOPOTENTIATING INOSINE MONOPHOSPHATE 5'-NUCLEOTIDASE RESISTANT DERIVATIVES AND USES THEREOF” (UNIVERSITY OF SOUTH FLORIDA, priority 1995, dated 1996)

Tests used:
5'-nucleotidase = details: Crotalus atrox, pH 7.3
[1] = in vivo; cited from earlier work

Compound	Hydrolysis (%) (5'-nucleotidase)	half-life [1]
Nc1ncnc2c1ncn2[C@@H]1O[C@H](COP(=O)(O)O)[C@@H](O)[C@H]1O [Adenosine MP, adenosine-5'-monophosphate]	86.0	
isoprinosine		less than four hours
